# Reference: patent publication US20250325531A1, “TREATMENT OF SYSTOLIC DYSFUNCTION” (MyoKardia, Inc., priority 2024, published 2025)
# Where “and” joins values, the source holds several entries; their conditions need not be identical. Equal entries are not always repeated.
# Columns and labels:
# [1] = Pharmacokinetics of multiple ascending doses (MAD Cohorts A-D) in patients with stable HFrEF; assay type: in vivo, human; conditions: for Accumulation Index: estimated based λz and Tau
# Description: This was a randomized, parallel-group, DB, placebo-controlled, adaptive design, sequential ascending (oral) multiple-dose study in stable patients with heart failure. Four MAD Cohorts (A, B, C, D) were enrolled (FIG. 5B). An SRC reviewed results from each cohort and determined the dose and confirmed initial sample size for the subsequent cohort. Additionally, the first 3 patients in each cohort had LVEF ≥25%; the SRC reviewed preliminary safety data from these patients and decided whether to open cohort enrollment to patients with LVEF <25%.
# After Screening and qualification, patients were confined to a clinical testing facility from Day 1 (Check-in) to Day 11. Each patient initially received placebo BID for 2 days (Days 1 and 2) in single-blinded manner (“run-in” during acclimatization to confinement in the Clinical Testing Unit) prior to receiving the randomized DB study drug treatment on Day 3. All patients then received either placebo or active Compound I for 7 days (Days 3 through 9), with a follow-up period with patients discharged from the unit on Day 11. A final follow-up clinic visit was conducted on Day 16. More than one patient could be dosed in a cohort at the same time or during the same week depending on administrative issues, i.e., capacity and scheduling.
# Patients were dosed twice daily (every 12 hours). Doses could occur ±2 hours from scheduled dosing times as long as doses were separated by at least 10 hours and by no more than 14 hours. The exception to the twice daily dosing was on Day 9 (last dose of randomized DB study drug treatment). On Day 9, a single morning dose was administered.
# (§1) During the study, multiple evaluations were performed that included: serial TTE assessments (11-14 TTEs per patient on Days 1, 2, 3, 4, 7, 9, 10 and 11); PK sampling (PK sample collected concomitantly with every post-randomization echocardiogram); ECGs (on Days 2, 3, 4, 7, 9, 10, 11 and 16); troponin (collected concomitantly with every post-randomization ECG); and safety laboratory assessments. Confined patients underwent continuous telemetry. Holter monitoring was performed in all patients at baseline (Days 1-2) and at the end of double-blind treatment (Days 7-9). Vital signs were collected daily.
# Study medication consisted of Compound I 5 mg tablets, 25 mg tablets, 100 mg tablets, or matching placebo tablets. In Part 1 (SAD), Compound I or placebo was administered after an overnight fast (at least 6 hours), while in Part 2 (MAD), Compound I was administered after a 2 hour fast (Cohort A) or with food (Cohorts B, C, and D). The dose was ingested with a minimum of 240 mL of water, but more water was ingested as needed. The entire dose was administered over a period of up to 15 minutes. The time of dose used to determine future assessments was the time the last tablet was taken. In the cohorts for Part 2 (MAD), a BID regimen was used.
# In Part 2 (MAD), Cohort A patients fasted for 2 hours before and 2 hours after dosing. For example, if morning dosing occurred at 8 AM, patients could have a snack at 6 AM and a full breakfast at 10 AM. If afternoon dosing occurred at 8 PM, patients could have dinner at 6 PM and a snack at 10 PM. […] Cohort B, C, and D patients ingested food with each dose.
# A total of 40 subjects across 4 cohorts received 7 days of treatment with placebo or Compound I at doses of 50 mg (with food), 75 mg (1 cohort with food, 1 cohort with […]), or 100 mg (with food), BID (see FIG. 5B and Table 14).
# [2] = tested on: patients with stable HFrEF; experiment: TTE pharmacodynamics in MAD cohorts, patients with stable HFrEF; assay type: in vivo, human; conditions: plasma concentration group <2000 ng/mL (n = 30); LS mean difference vs placebo
# Description: as §1
# PD assessment was done by transthoracic echocardiography as described in Example 1 above. TTE evaluations of LVSV (derived from LVOT-VTI), LVEF, LVFS, SET, and other parameters were PD assessments at predetermined time points. The patients were on bed rest for 10 minutes before the TTEs were obtained. […]
# The pharmacodynamic effects of Compound I on echocardiographic markers of cardiac structure and function were analyzed by Compound I plasma concentration groups: <2000 ng/mL (lower concentration group), 2000-3500 ng/ml (medium concentration group) and >3500 ng/ml (higher concentration group) (Table 16) and with PK-PD scatterplots (FIGS. 9A-9C). […]
# [3] = MAD Cohort A (75 mg BID, 4 h fasting), individual subjects
# [4] = MAD Cohort B (50 mg BID, with food), Mean
# [5] = MAD Cohort C (75 mg BID, with food), individual subjects
smiles,measurement,setting,value
"Cn1cc(S(=O)(=O)[C@@](C)(F)C2CCN(C(=O)Nc3ccon3)CC2)c(C(F)F)n1 [Compound I, (R)-4-(1-((3-(difluoromethyl)-1-methyl-1H-pyrazol-4-yl)sulfonyl)-1-fluoroethyl)-N-(isoxazol-3-yl) piperidine-1-carboxamide]",Steady-state (Day 9) post-dose maximum concentration,"[1]; Cohort A + C (n = 14), 75 mg BID",3862 (27.7%) ng/mL
same,Steady-state (Day 9) post-dose maximum concentration,"[1]; Cohort B (n = 8), 50 mg BID",2735 (17.5%) ng/mL
same,Steady-state (Day 9) post-dose maximum concentration,"[1]; Cohort D (n = 6), 100 mg BID",5560 (22.8%) ng/mL
same,Accumulation Index,"[1]; MAD Cohort A (75 mg BID, 4 h fasting), Mean",3.11
same,"AUCtau, Day 1",[1]; [3],10610 ng·h/mL
same,Accumulation Index,[1]; [3],3.82 and 3.89 and 2.79* and 2.21 and 3.00 and 2.61
same,"Cmax, SS",[1]; [4],2771 ng/mL
same,Accumulation Index,[1]; [4],3.55
same,Accumulation Index,"[1]; MAD Cohort B (50 mg BID, with food), individual subjects",3.63 and 5.03 and 4.46 and 2.93 and 3.51 and 2.42 and 3.20 (2×) and 4.23*
same,Accumulation Index,"[1]; MAD Cohort C (75 mg BID, with food), Mean",3.18
same,"AUCtau, Day 1",[1]; [5],10560 ng·h/mL
same,Accumulation Index,[1]; [5],2.18 and 2.39 and 2.99 and 3.31 and 5.51 and 2.43 and 2.20 and 4.17 and 3.42
same,Accumulation Index,"[1]; MAD Cohort D (100 mg BID, with food), Mean",3.30
same,Accumulation Index,"[1]; MAD Cohort D (100 mg BID, with food), individual subjects",3.46 and 3.77 and 3.06 and 3.31 and 2.61 and 3.62
same,"E/e′ (lateral), mean change from baseline (placebo-corrected)",[2],0.8
